# T1: mouse Gas6 (Mus musculus, UniProt Q61592)
# T1 sequence (Q61592 28-674): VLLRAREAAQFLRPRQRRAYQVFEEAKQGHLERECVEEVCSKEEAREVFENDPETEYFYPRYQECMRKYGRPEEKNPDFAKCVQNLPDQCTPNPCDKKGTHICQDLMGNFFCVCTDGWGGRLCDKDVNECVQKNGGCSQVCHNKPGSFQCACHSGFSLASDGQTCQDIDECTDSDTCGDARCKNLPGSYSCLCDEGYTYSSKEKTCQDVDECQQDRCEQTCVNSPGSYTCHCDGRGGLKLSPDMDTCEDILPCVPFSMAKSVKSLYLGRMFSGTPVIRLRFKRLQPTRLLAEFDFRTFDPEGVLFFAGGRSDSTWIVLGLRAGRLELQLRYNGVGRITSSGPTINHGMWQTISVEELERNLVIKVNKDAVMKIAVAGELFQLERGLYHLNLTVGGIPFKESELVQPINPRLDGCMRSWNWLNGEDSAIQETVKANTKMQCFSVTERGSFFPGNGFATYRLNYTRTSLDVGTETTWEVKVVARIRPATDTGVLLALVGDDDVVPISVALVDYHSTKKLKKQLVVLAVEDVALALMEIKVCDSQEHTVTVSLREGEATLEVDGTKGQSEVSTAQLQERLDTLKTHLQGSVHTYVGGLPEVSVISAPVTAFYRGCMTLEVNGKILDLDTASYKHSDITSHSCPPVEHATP
# T2: human Gas6 (Homo sapiens, UniProt Q14393)
# T2 sequence (Q14393 31-678): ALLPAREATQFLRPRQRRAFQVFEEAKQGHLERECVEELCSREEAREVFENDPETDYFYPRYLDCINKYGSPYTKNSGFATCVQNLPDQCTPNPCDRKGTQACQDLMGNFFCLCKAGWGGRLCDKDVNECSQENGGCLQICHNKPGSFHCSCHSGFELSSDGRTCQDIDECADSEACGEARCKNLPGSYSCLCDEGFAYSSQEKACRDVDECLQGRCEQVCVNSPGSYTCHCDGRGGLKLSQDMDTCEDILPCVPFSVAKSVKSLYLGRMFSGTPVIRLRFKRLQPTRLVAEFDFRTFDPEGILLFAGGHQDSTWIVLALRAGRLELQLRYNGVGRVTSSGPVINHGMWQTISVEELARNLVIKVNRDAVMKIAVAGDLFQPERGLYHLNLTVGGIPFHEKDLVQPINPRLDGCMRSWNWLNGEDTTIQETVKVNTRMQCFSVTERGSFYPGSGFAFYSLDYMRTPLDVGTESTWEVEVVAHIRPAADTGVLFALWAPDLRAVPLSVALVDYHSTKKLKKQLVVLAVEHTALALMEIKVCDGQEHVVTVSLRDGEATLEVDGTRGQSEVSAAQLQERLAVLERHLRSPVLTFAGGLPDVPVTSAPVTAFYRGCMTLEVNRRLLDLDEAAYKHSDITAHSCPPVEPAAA
# B1: MYD1 Ig1: first generation high affinity Axl Ig1 variant containing four mutations that conferred improved binding to Gas6 (protein)
# chain: APRGTQAEESPFVSNPGNITGARGLTGTLRCQLQVQGEPPEVHWLRDGQILELADSTQTQVPLGEDEQGDWIVASQLRITSLQLSDTGQYQCLVFLGHQTFVSQPGYVRLEGLP
# modifications: left off: small tags and cut ends
# Tests used:
# [1] = tested on: 4T1 luciferase cells; assay type: in vivo
# Description: In this model, cells orthotopically implanted in the mammary fat pad generate primary masses that metastasize to the lungs.
# Comparison of MYD1-72 Fc with clinical Axl. TKIs There are currently no FDA approved drugs targeting Axl, though several small molecule kinase inhibitors are undergoing clinical trials. BerGenBio's BGB324 (previously Rigel's R428) is the most advanced of these compounds, and the first to be developed prospectively as an Axl inhibitor. […] Furthermore, since TKI's and biologics are fundamentally very different, as are their mechanisms of action, a direct comparison would provide valuable insights into the potential of distinct therapeutic intervention strategies. […] Cells were implanted orthotopically in the mammary fat pad, and primary tumors were allowed to establish prior to treatment. […] This dose for the TKIs was chosen as significant activity has been previously reported at equivalent concentrations.
# (§1) Treatment was initiated four days post-surgery.
# [2] = tested on: ovarian cancer cells; assay: EdU labeling and γH2AX co-staining; assay type: cell-based
# Method: (§2) 10,000 cells were plated in each well of glass chamber slide and allowed to attach overnight. […] Cells were then washed with PBS and fixed with 4% paraformaldehyde, lysed for 10 minutes and blocked with a 2% BSA and 0.1% PBS-Triton-X solution for 1 hour. After washes in PBS-Triton-X, cells were incubated with mouse anti-[…]H2AX, (#05-636, Merck Millipore, Darmstadt, Germany); rabbit anti-RAD51, (#PC130-100 UL Merck Millipore, Darmstadt, Germany); rabbit anti-53BP1, (# ab36823, Abcam, Cambridge, Mass.) overnight in a humidified chamber at 4 degrees. Cells were washed with PBS and incubated in secondary antibody anti-rabbit FITC (#65-6111 Thermo Fisher Scientific, Walthan, Mass. or anti-mouse FITC, (#62-6511, Thermo Fisher Scientific, Walthan, Mass.) for 1 hour at 37 degrees and counterstained with Prolong Mounting medium with DAPI. Positive foci intensity were calculated using imagine software Metamorph. EdU (5-ethynyl-2′-deoxyuridine) labeling and co-staining were carried out according to the manufacturer's instructions (#C10637, Thermo Fisher Scientific, Walthan, Mass.). γH2AX staining was performed as described above.
# (§3) Cells were visualized using a Leica DM6000 B microscope with Leica Application Suite X software (Wetzlar, Germany). EdU was used at a concentration of 10 μM. EdU labeling was carried out for 1 hour in all cases, for conditions including drug treatments EdU was added during the last hour of treatment. Experiments were carried out in triplicate. Quantification of staining: Positive γH2AX staining refers to cells with over eight foci and pan-nuclear staining. For hydroxyurea (Hu) treated groups, γH2AX positive cells refers to cells where a pan-nuclear staining pattern (typically associated with replication stress) was observed.
# [3] = tested on: ovarian cancer cells; assay: Immunofluorescence of DNA damage foci in ovarian cancer cells; assay type: cell-based
# Method: as §2, §3
# [4] = tested on: Axl and FLT3 phosphorylation in AML cells; assay: Western blot of Axl and FLT3 phosphorylation in AML cells; assay type: cell-based, human
# Description: (§4) Cell lysates subjected to sodium dodecyl sulfate polyacrylamide gel electrophoresis followed by transfer to nitrocellulose membrane. The membranes were then probed with primary antibodies against total Axl (AF154, R&D Systems, INC., Minneapolis, Minn.), phospho-Axl (T702; #5724, CST, Danvers, Mass.), total Akt (#4691 CST, Danvers, Mass.), phosphor-Akt (#4060, CST, Danvers, Mass.), anti-MERTK (#ab52968, Abcam, Cambridge, Mass.), phospho-MERTK (#ab14921 Abcam, Cambridge, Mass.), anti-Tyro3 (#5585, CST, Danvers, Mass.), phospho-Tyro3 (#orb186274, Biorbyt LLC, Berkely, Calif.), Bcl-2 Family Antibody Sampler Kit (#9934, CST, Danvers, Mass.), anti-Chk2 (#sc-5278, Santa Cruz Biotech, INC., Santa Cruz, Calif.), anti-XRCC1 (#2735, CST, Danvers, Mass.), anti-γH2AX (Merck Millipore #05636, Darmstadt, Germany), anti-phospho-ATM (#ab81292, Abcam, Cambridge, Mass.), anti-ATM (#ab78, Abcam, Cambridge, Mass.), anti phospho-ATR (#2853, CST, Danvers, Mass.), anti-ATR (#2790, CST, Danvers, Mass.), anti-Phospho Chk1 (#12302, CST, Danvers, Mass.), anti-Phospho Chk2 (#2197, CST, Danvers, Mass.) and anti-RPA32 (#2208, CST, Danvers, Mass.) at 4° C. overnight. The blots were then washed and probed with HRP conjugated anti-goat (#sc-2020, Santa Cruz Biotech, INC., Santa Cruz, Calif.), or HRP conjugated anti-rabbit (#A16110, Thermo Fisher Scientific, Walthan, Mass.) as appropriate. The blots were developed with Bio-Rad Western C developing reagent (#170-5060 Bio-Rad, Hercules, Calif.) and visualized with Chemidoc digital imager (#1708280, Bio-Rad, Hercules, Calif.).
# [5] = tested on: LM-P orthotopic pancreatic cancer; assay: LM-P orthotopic pancreatic cancer model; settings: immunohistochemistry
# Method: LMP cells derived from the KRAS/p53 metastatic mouse model were implanted subcutaneously into the flanks of mice and allowed to grow until they reached ˜500 mm^3 in size.
# To establish orthotopic tumors, mice harboring subcutaneous tumors were sacrificed and tumors were isolated and cut into small fragments. Laparotomies were then performed and a tumor fragment was secured to the tail of the pancreas.
# All procedures involving animals and their care and use were approved by the Institutional Animal Care and Usage Committee of Stanford University. For all in vivo studies, six week old, female nude (nu/nu) mice (Jackson Laboratory, Bar Harbor, Me.) were used. In all studies, animals displaying signs of morbidity were removed from the study immediately. […] Treatment was initiated four days post-inoculation for both studies. […] BGB324 (Selleckchem LLC, Houston, Tex.) and Foretinib (MedChem, Monmouth Junction, N.J.). Small molecules were administered twice daily via oral gavage. […] The orthotropic LM-P pancreatic adenocarcinoma model (a gift from Dr. Edgar Engleman at Stanford University, Stanford, Calif.) was established as previously described. Briefly, 1×10^6 cells were injected subcutaneously into the flanks of nude mice and grown for 2-3 weeks until they reached 500 mm^3. […]
# [6] = tested on: phosphorylation of Axl, Mer, Tyro3, and downstream Akt signaling in OVCAR8 cells; assay: Western blot of TAM receptor and Akt phosphorylation in OVCAR8 cells; assay type: cell-based, human
# Description: as §4
# [7] = tested on: OVCAR8; assay: OVCAR8 intraperitoneal ovarian cancer model; assay type: in vivo, mouse; settings: MYD1-72 Fc 1 mg/kg daily, doxorubicin 2 mg/kg twice weekly, three weeks
# Description: (§5) At this time, several mice were sacrificed at random to ensure engraftment of diffuse metastatic disease, a hallmark of the human condition. […] After three weeks of treatment, mice were sacrificed and tumor burden was quantified both by counting the number of visible lesions, as well as excising and weighing all diseased tissue.
# as §1
# [8] = tested on: ATM, ATR, CHK1, CHK2 and RPA32 in ovarian cancer cells; assay: Western blot of DNA damage response components in ovarian cancer cells; assay type: cell-based; settings: low serum (0.1% FBS)
# Description: (§6) To further understand this relationship, we performed a reverse phase protein array (RPPA) on shAxl cell lines and wild-type cell lines treated with MYD1-72 Fc. […] In addition, we performed western blot analysis to examine expression levels of classical DNA damage response components, including total and phosphorylated ATM, ATR, CHK1, CHK2 and RPA32 (FIG. 5B) at four time points post MYD1-72 treatment.
# as §4
# [9] = tested on: skov3.ip; assay: skov3.ip intraperitoneal ovarian cancer model; assay type: in vivo, mouse xenograft; settings: MYD1-72 Fc 1 mg/kg daily, doxorubicin 2 mg/kg twice weekly, three weeks
# Description: as §5, §1
# [10] = tested on: wild-type cell lines; assay: Reverse phase protein array (RPPA); assay type: cell-based; settings: continuously for seven days in low serum (1% FBS)
# Method: as §6
# The RPPA was performed by MD Anderson as described.
# [11] = target: T1, mouse Gas6; assay: Kinetic Exclusion Assay (KinExA), Gas6-Axl binding, mouse Gas6
# Method: (§7) Equilibrium binding and association rate constants for all Gas6-Axl interactions were measured on a KinExA3200 instrument (Sapidyne Instruments Inc. Boise, Id.) as previously described. For equilibrium binding studies, three independent titrations were completed for each Axl Ig1 or Axl Fc fusion unless otherwise noted. […] After the appropriate incubation time, reactions were flowed over MYD1 Fc coated beads and captured free Gas6 was probed using an anti-6×HIS Dylight 649 antibody (#200-343-382, Rockland Immunochemicals Inc., Pottstown, Pa.). Each sample was measured twice and data from the three independent equilibrium binding experiments were globally analyzed using n-curve analysis in the KinExA Pro 3.6.2 software (Sapidyne Instruments Inc. Boise, Id.) to obtain the Kd value. To analyze the association rate of the interactions, the direct inject method was used. For these experiments, 1 μM Axl was serially diluted 1:2.5, and equal volumes of each Axl sample and 500 nM Gas6 were briefly mixed and flowed over the capture beads. Free Gas6 was detected as described and the data was fit using the KinExA Pro 3.6.2 software to obtain the association rate (kon) of the interaction. The dissociation rate (koff) was calculated as the product of the Kd and the kon.
# [12] = target: T2, human Gas6; assay: Kinetic Exclusion Assay (KinExA), Gas6-Axl binding, human Gas6
# Method: as §7
molecule,measurement,setting,value
"MYD1-72 Fc: Fc fusion of the second generation high-affinity Axl decoy receptor MYD1-72 (Gly32Ser, Ala72Val, Asp87Gly, Val92Ala, Gly127Arg)",lung metastatic disease,"[1]; 0.5 mg/kg iv twice a week, three weeks",significantly less metastatic disease than those treated with MYD1 Fc
same,reduction in lung metastases compared to vehicle treated mice,"[1]; MYD1-72 Fc 1 mg/kg daily, TKIs 12.5 mg/kg twice daily, ex vivo bioluminescent imaging",71%
same,size of primary tumors,"[1]; MYD1-72 Fc 1 mg/kg daily, TKIs 12.5 mg/kg twice daily, three weeks, vs control",significantly reduced the size of primary tumors
same,γH2AX positive cells in primary tumor,[1]; immunohistochemistry,significantly more γH2AX positive cells compared to all other treatment groups
same,γH2AX positive cells in combination with hydroxyurea,[2]; hydroxyurea in the presence and absence of MYD1-72 Fc,no additive effect was observed
same,non-S phase cells (EdU negative) positive for γH2AX,[2]; treated group,7%
same,γH2AX positive cells that were also in S phase/EdU positive,[2]; treated group,85%
same,γH2AX foci,"[3]; complete media, 0.1 μg or 10 μg",showed no changes across treatments
same,53BP1 and RAD51 foci,[3]; serum-limited conditions,increased the numbers of both 53BP1 and RAD51 foci
same,number of γH2AX foci,"[3]; serum-limited conditions, vs untreated controls",significant increase in the number of γH2AX foci
same,Axl and FLT3 phosphorylation,[4],inhibited Axl and FLT3 phosphorylation
same,γH2AX staining (DNA damage) in primary tumor,[5],small effect on DNA damage
same,pAxl and pAkt levels,[6],significantly reduced pAxl and pAkt levels
same,pMer and pTyro3 levels,[6],pMer and pTyro3 remained relatively unchanged
same,reduction of tumor burden,[7],95%
same,phospho-RPA32 level,[8],Elevated phospho-RPA32 level
same,phospho-ATM and phospho-ATR,[8]; four time points,significant induction of phospho-ATM and phospho-ATR at early time points
same,phosphorylation of CHK1 and CHK2,[8]; four time points,increased phosphorylation of both CHK1 and CHK2
same,decrease in tumor burden (by weight) vs controls,[9],51%
same,XRCC1/Chk2 and BAX/BID expression,[10],highly upregulated
B1,binding to mouse Gas6,[11],no increase in binding to mouse Gas6
same,Kd,"[12]; Axl Ig1 variants, read-out: Kd hGas6",2.7 pM
same,koff,[12]; calculated as the product of the Kd and the kon,4.0 10^−5 s^−1
same,kon,[12]; direct inject method,1.6 10^7 M^−1 s^−1

# From US20180140679A1, “MODULATION OF AXL RECEPTOR ACTIVITY IN COMBINATION WITH CYTOREDUCTIVE THERAPY” (THE BOARD OF TRUSTEES OF THE LELAND STANFORD JUNIOR …, priority 2016, published 2018)
